From US12274681B2, “Compositions and methods for reducing skin fat” (Purdue Research Foundation, priority 2016, dated 2025)

What was measured:
[1] = target: ACAT2 (Homo sapiens, UniProt O75908); details: cited from earlier work
[2] = test system: high fat diet-fed C57BL/6J obese and diabetic mice; assay: High fat diet-induced obese and diabetic mouse model; format: in vivo; details: for anti-diabetes treatment / anti-obesity treatment in a mouse model of obesity: summary statement
[3] = test system: murine 3T3-L1 preadipocytes; assay: Lipid accumulation in differentiating adipocytes, Oil Red O staining and spectrometric quantification; format: cell-based
Method: Avasimibe solution was prepared by dissolving in dimethyl sulfoxide (DMSO). At day 6, preadipocytes and avasimibe-treated differentiated adipocytes were subjected to Oil Red 0 staining to visualize accumulated intracellular lipids. Oil Red 0 stained lipids were then extracted for spectrometric quantification of lipids. Intracellular lipids were decreased in a dose-dependent manner by up to 60% (FIG. 3A and FIG. 3B).

[4] = target: T1, ACAT1 (Homo sapiens, UniProt P35610); details: cited from earlier work
T1 sequence (P35610 1-550): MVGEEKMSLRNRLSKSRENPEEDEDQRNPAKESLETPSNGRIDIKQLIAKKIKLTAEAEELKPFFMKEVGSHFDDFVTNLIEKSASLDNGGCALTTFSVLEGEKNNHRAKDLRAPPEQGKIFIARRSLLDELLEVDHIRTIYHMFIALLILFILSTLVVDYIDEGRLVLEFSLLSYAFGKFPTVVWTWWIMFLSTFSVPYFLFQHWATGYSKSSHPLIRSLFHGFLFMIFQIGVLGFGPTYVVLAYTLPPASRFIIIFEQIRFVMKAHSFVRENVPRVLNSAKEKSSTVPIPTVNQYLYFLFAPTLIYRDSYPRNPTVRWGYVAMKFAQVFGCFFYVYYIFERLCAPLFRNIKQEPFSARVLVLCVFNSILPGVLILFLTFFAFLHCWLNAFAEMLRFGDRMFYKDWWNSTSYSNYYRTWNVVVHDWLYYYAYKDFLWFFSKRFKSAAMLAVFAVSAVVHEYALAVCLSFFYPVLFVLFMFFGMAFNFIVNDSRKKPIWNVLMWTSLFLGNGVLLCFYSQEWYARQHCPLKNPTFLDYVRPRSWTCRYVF

[5] = test system: mature adipocytes; assay: Lipid accumulation by Coherent Anti-Stokes Raman Scattering (CARS) microscopy; format: cell-based, murine
[6] = test system: 3T3-L1 adipocytes; assay: Proteomic analysis of adipocytes by LC MS/MS; format: cell-based, Mus musculus; details: 10 μM
Method: 3T3-L1 preadipocytes were induced to differentiate into mature adipocytes with the same culture condition as described elsewhere. […] Avasimibe or DMSO was replaced freshly every 48 h. Each condition was cultured in triplicate. On day 6, adipocytes were washed with 1×PBS and scraped off the culture dishes. Adipocyte cell pellets were collected after centrifugation and subsequently digested with trypsin (Sigma-Aldrich, St. Louis MO, USA) at the Ratio of 1:50 (μg/μg) Trypsin to Protein. The tryptic peptides after trypsin digestion were separated on a nano LC system (1100 Series LC, Agilent Technologies, Santa Clara, CA) as described previously (D'Aquila, et al. 2015). Briefly, peptides were concentrated with Agilent 300SB-C18 enrichment column and separated with C18 reversed phase ZORBAX 300SB-C18 column. High resolution hybrid ion trap mass spectrometer LTQ-Orbitrap LX (Thermo Fisher Scientific, Waltham MA, USA) was employed to identify the peptides in the data-dependent positive acquisition mode. These experiments were done in Bindley Bioscience Center. We used the MaxQuant computational proteomics platform version 1.5.3.17 (Cox and Mann, 2008) to analyze the results from LC MS/MS analysis. The Mus musculus (24754 entries) sequence from UNIPROT retrieved on Sep. 1, 2015 and a common contaminants database were used as our reference databases. MaxQuant was set with parameters as follows: minimum peptides length was set to seven amino acids, and “Match between runs” interval was set to one minute; The FASTA databases were randomized and 1% of protein false discovery rate was allowed; With trypsin digestion, two missed cleavages were accepted; Three modifications per peptide were allowed, including one fixed modification as “Iodoethanol” and variable modifications as “Oxidation (M)” and “Acetyl (Protein N-term)”; Initial precursor was set to 0.07 and fragment mass tolerance set to 0.02 Da; Data were analyzed with “Label-free quantification” (LFQ) checked. The MaxQuant results were used in in-house script to remove all the common contaminant proteins and to calculate the average LFQ intensity values for the biological replicates and log transform [log2(x)]. The missing values were left blank unless indicated. A two tailed student t-test was performed on the LFQ intensity.

[7] = test system: differentiated 3T3-L1 preadipocytes; assay: Real-time PCR of lipid synthesis and cholesterol uptake genes in adipocytes; format: cell-based, murine
Method: To characterize the effect of avasimibe treatment on mRNA levels of genes involved in lipid metabolism and adipocyte function, differentiated 3T3-L1 preadipocytes in the presence or absence of avasimibe (20 μM) for 6 days were subjected to real-time PCR assay for the analysis of expression of genes involved in synthesis of fatty acids and TGs such as PPARγ, sterol regulatory element binding protein 1c (SREBP1c), MGAT1, DGAT2, FAS and SCD-1.
(§1) Previous studies reported an adipogenesis-dependent increase in cholesterol accumulation in adipocytes. Similarly, adipogenesis was associated with elevated level free cholesterol with little change in CE level.

[8] = test system: cytochrome P450 (CYP450); details: Sahi, et al. 2004; cited from earlier work
[9] = test system: adipocytes; assay: Cholesterol and cholesterol ester accumulation in adipocytes during adipogenesis; format: cell-based
Excerpt: as §1

[10] = test system: adipocytes; assay: De novo fatty acid synthesis, glucose-d7 with stimulated Raman scattering (SRS) microscopy; format: cell-based; details: SRS imaging
Excerpt: Using deuterium labeled glucose-d7, the effect of avasimibe on de novo fatty acid synthesis in adipocytes treated with or without avasimibe was examined. Glucose-d7 incorporated fatty acids were visualized by stimulated Raman scattering (SRS) microscopy.

[11] = mouse, in vivo, ip, 20 mg/kg
Excerpt: Tissue- and isoform-specific regulation of ACATs has been proposed to be therapeutic strategy for cholesterol dysregulated diseases, such as atherosclerosis. However, the therapeutic role of ACATs in obesity has never been explored.

[12] = test system: SREBP1; assay: Western blot of SREBP1 in adipocytes; format: cell-based
Method: Because SREBP1 plays a key role in de novo fatty acids and TG synthesis and the data in FIG. 6 show a potential inhibitory role of avasimibe in suppression of SREBP1-downstream genes involved in fatty acid and TG synthesis, the ability of avasimibe treatment to alter SREBP1 protein expression and de novo fatty acid synthesis in adipocytes was tested.

[13] = test system: high-fat diet-induced obesity mouse model; assay: Pair-feeding study in high-fat diet-induced obesity mouse model; format: in vivo, mice
Excerpt: To do this, mice were pair-fed with the amount of food consumed by avasimibe-administrated mice for 8 days.

[14] = cited from earlier work
[15] = test system: ACAT; assay: 25-NBD cholesterol-based ACAT assay in adipocytes; format: cell-based
Excerpt: as §1

[16] = test system: ACAT1; assay: Lentivirus-mediated ACAT1 knockdown in adipocytes (Oil Red O, real-time PCR); format: cell-based, mouse
Method: The direct role of ACAT1 on synthesis of fatty acids and TGs in adipocytes by lentivirus-mediated ACAT1 knockdown using its specific shRNA was tested.

[17] = test system: ACAT2; assay: ACAT2 knockdown in adipocytes (Oil Red O, real-time PCR); format: cell-based, mouse
[18] = daily i.p. 20 mg/kg, about 2-week

Chain of ACAT2 (Homo sapiens, UniProt O75908) (O75908 whole entry): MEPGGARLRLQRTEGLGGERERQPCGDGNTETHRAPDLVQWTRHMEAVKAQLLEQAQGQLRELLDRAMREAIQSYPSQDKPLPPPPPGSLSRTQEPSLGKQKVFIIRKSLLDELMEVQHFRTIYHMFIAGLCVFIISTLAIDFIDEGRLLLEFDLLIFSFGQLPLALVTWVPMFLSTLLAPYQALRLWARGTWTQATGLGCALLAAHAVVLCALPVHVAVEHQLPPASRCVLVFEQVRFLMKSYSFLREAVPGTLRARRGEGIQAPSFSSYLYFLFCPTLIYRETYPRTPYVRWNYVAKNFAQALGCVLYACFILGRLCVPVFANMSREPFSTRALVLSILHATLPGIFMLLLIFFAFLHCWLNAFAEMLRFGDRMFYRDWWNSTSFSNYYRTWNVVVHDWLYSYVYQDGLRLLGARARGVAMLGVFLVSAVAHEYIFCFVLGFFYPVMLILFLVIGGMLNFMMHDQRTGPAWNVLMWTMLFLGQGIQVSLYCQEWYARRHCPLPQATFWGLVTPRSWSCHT

CCCCCCCCCCC(C)(C)C(=O)Nc1c(OC)cc(OC)cc1OC [CI-976, 2,2-Dimethyl-N-(2,4,6-trimethoxyphenyl) dodecanamide]
IC50 [1]: < 1000 nM | anti-diabetes treatment [2]: highly effective | anti-obesity treatment in a mouse model of obesity [2]: highly effective | lipid accumulation (Oil Red O) ([3]; 0, 5, 15 and 20 μM for 6 days): decrease in lipid accumulation

CC(C)c1cc(C(C)C)c(CC(=O)NS(=O)(=O)Oc2c(C(C)C)cccc2C(C)C)c(C(C)C)c1 [avasimibe]
IC50 [4]: 10000 nM | lipid accumulation by CARS microscopy [5]: inhibited lipid accumulation was confirmed | Acyl-CoA dehydrogenase protein level reduction [6]: 56% | Acyl-CoA synthetase long-chain family member 1 protein level reduction [6]: 86% | FAS protein level [6]: only identified in the control group | acetyl-CoA acyltransferase 1 protein level reduction [6]: 61% | adiponectin protein level reduction [6]: 84% | carnitine O-acetyltransferase protein level [6]: only identified in the control group | cytochrome B5 Reductase 3 and superoxide dismutase 1 protein levels [6]: not altered significantly | cytochrome B5 Type A protein level reduction [6]: 67% | enoyl CoA hydratase short chain 1 protein level reduction [6]: 64% | fatty acid binding protein 4 protein level reduction [6]: 64% | hydroxyacyl-CoA dehydrogenase protein level reduction [6]: 64% | hydroxysteroid (17-13) dehydrogenase 4 protein level reduction [6]: 38% | sterol carrier protein 2 downregulation [6]: 36% | mRNA levels of genes involved in lipid synthesis (PPARγ, SREBP1c, MGAT1, DGAT2, FAS, SCD-1) ([7]; 20 μM for 6 days): marked decrease | mRNA levels of cholesterol uptake genes SR-BI and CD-36 ([7]; vs control adipocytes): marked decrease | inhibition of cytochrome P450 (CYP450) [8]: known to inhibit | IC50 [1]: 2500 nM | CE accumulation in adipocytes [9]: complete inhibition | cholesterol level in adipocytes [9]: significantly reduced level | LD accumulation and glucose-d7 signal in LDs (de novo fatty acid synthesis) [10]: reduced level | HOMA-IR values ([2]; 2-week administration): improved | blood glucose ([2]; 2-week administration): marked reduction | glucose tolerance ([2]; 2-week administration): improved glucose tolerance | insulin levels ([2]; 2-week administration): marked reduction | decrease in food intake ([2]; daily i.p. 20 mg/kg): approximately 50% | energy expenditure ([2]; daily i.p. 20 mg/kg): reduced energy expenditure | reduction or suppression in total body weight gain ([2]; daily i.p. 20 mg/kg body weight, about 2-week): about 25% | white adipose tissue (inguinal, epididymal, retroperitoneal) weight [2, 18]: significant loss | whole body fat mass [2, 18]: significant loss | circulating leptin level ([2]; mouse, in vivo): markedly suppressed | serum CE ([2]; mouse, in vivo): decrease | serum TG ([2]; mouse, in vivo): decrease | serum free cholesterol ([2]; mouse, in vivo): decrease | anti-diabetes treatment [2]: highly effective | anti-obesity treatment in a mouse model of obesity [2]: highly effective | respiratory exchange ratio ([2]; vs control mice): reduced respiratory exchange ratio | liver toxicity by alanine transaminase (ALT) assay [11]: no noticeable liver toxicity | level of 125 kDa inactive precursor form of SREBP1 [12]: elevated levels | blood glucose of pair-fed group relative to avasimibe-treated mice ([13]; 8 days): didn't reach to the level found from avasimibe-treated mice | fecal energy content ([13]; 8 days): little change | fecal excretion and fecal energy excretion ([13]; figure legend FIG. 23C, 23D): suppressed | safety when administered to rats, dogs, and humans ([14]; in vivo): generally considered safe | hypercholesterolemia ([14]; oral): effectively lowered | effect on body weight, food intake and insulin resistance ([14]; orally administrated): no effect | decrease of intracellular lipids (Oil Red O) ([3]; avasimibe 0, 1, 5, and 20 μM for 6 days, dose-dependent): up to 60% | ACAT activity (fluorescence-labeled CE accumulation) [15]: inhibited the ACAT activity

ACAT1 shRNA: mouse ACAT1 shRNA sequence (SEQ ID NO:5), lentivirus-mediated ACAT1 knockdown (CCGGCCAACCAGAGACUAAACAUAUCUCGAGAUAUGUUUAGUCUCUGGUUGGUUUUUUG; listed as Mus musculus)
suppression of lipid accumulation vs control ShRNA adipocytes (Oil Red O) ([16]; ACAT1 knockdown): up to 40% | mRNA levels of genes involved in lipid synthesis ([16]; ACAT1 knockdown, real-time PCR): marked decrease | ACAT2 expression level ([16]; ACAT1 shRNA): no influence

ACAT2 shRNA: mouse ACAT2 shRNA sequence (SEQ ID NO:6), ACAT2 knockdown (CCGGUGCGGUGGUUCAUGAGUAUAUCUCGAGAUAUACUCAUGAACCACCGCAUUUUUUG; listed as Mus musculus)
mRNA levels of genes involved in TG synthesis [17]: dramatic reduction | suppression of lipid accumulation vs control ShRNA adipocytes (Oil Red O) [17]: up to 55%
